Tests used:
[1] = n-octanol / sodium phosphate buffer; type: physicochemical; conditions: n-octanol/sodium phosphate buffer pH 7.4, 0.15 M, room temperature; mean ± SD, n = 6
plasma proteins [2] = experiment: plasma free fraction by ultrafiltration, monkey plasma; type: in vitro ADME, rhesus monkeys (Macaca mulatta); conditions: mean ± SD, n = 3; for fP Monkey: arterial monkey plasma, ultrafiltration, room temperature; for mlogDpr/pl Monkey: log10[(1−fp)/fp], monkey plasma
plasma proteins [3] = experiment: plasma free fraction by ultrafiltration, human plasma; type: in vitro ADME; conditions: mean ± SD, n = 3; for mlogDpr/pl Human: log10[(1−fp)/fp]; for fP Human: ultrafiltration, room temperature

SMILES	mlogD [1]	fP Monkey (plasma proteins [2])	mlogDpr/pl Monkey (plasma proteins [2])	mlogDpr/pl Human (plasma proteins [3])	fP Human (plasma proteins [3])
COc1ccccc1N1CCN(CCCCn2ncc(=O)n(C)c2=O)CC1 [Radiotracer 1, [O-methyl-^11C]2-(4-(4-(2-methoxyphenyl)piperazin-1-yl)butyl)-4-methyl-1,2,4-triazine-3,5(2H,4H)dione]	1.13 ± 0.02	0.594 ± 0.016	−0.165 ± 0.029	0.101 ± 0.006	
N#Cc1cc(F)cc(C#Cc2csc(CF)n2)c1 [Radiotracer 4, 3-fluoro-5-(2-(2-(fluoromethyl)thiazol-4-yl)ethynyl)benzonitrile]	2.18 ± 0.22			1.25 ± 0.13	0.0550 ± 0.0165
CN([11CH3])C(=O)C(CCN1CCC(O)(c2ccc(Cl)cc2)CC1)(c1ccccc1)c1ccccc1 [Radiotracer 7, [N-methyl-^11C]N-desmethyl-loperamide]					0.123 ± 0.015
[2H]C([18F])Oc1cccc([C@H]2C[C@@H](N[C@H](C)c3ccccc3)C(=O)N2c2ccc(C(F)(F)F)cc2)c1 (stereo partly shown) [Radiotracer 18]	4.24 ± 0.08	0.0041 ± 0.0001	2.39 ± 0.01	2.31 ± 0.14	0.0050 ± 0.0017
